Measurements: patent US20220162561A1, “COMPOSITION FOR PROMOTING SECRETION OF EXTRACELLULAR VESICLES” (priority 2019, published 2022)

Experiments:
Assay type in all cases: cell-based
[1] = test system: mesenchymal stem cells derived from human adipose tissue; assay: Test Example 3: promotion of secretion of extracellular vesicles, PS Capture exosome ELISA (anti-CD63); details: 24 hours, absorbance 450 nm minus 620 nm
Procedure: Mesenchymal stem cells derived from the human adipose tissue (#C-12977 manufactured by Takara Bio Inc.) were suspended in mesenchymal stem cell growth medium 2 (C-28009 manufactured by Takara Bio Inc.) so as to be 8×10^4 cells/1.8 mL, and seeded on a 6-well cell culture treatment plate (3516 manufactured by Corning Inc.). To the seeded mesenchymal stem cells derived from human adipose tissue was added 200 μL of the compound solution of each of Examples 1 to 8 diluted to 10-fold concentration with the mesenchymal stem cell growth medium 2, or mesenchymal stem cell growth medium alone (control), and after culturing for 24 hours, the culture solution was recovered. Subsequently, the recovered culture solution was centrifuged by 20,000×g at 4° C. for 60 minutes to prepare a culture solution from which cell fragments and Large Extracellular Vesicles were removed. For the detection of the extracellular vesicles, PS Capture (trademark) exosome ELISA kit (anti-mouse IgG POD) (#297-79201 manufactured by FUJIFILM Wako Pure Chemical Corporation) was used.
To Reaction/Washing Buffer (10×) diluted 10-fold with purified water was added 1/100 amount of Exosome Binding Enhancer (100×) to prepare a Reaction/Washing Buffer (1×). The culture solution prepared as mentioned above was diluted 5-fold with the Reaction/Washing Buffer (1×). After washing the Exosome Capture 96-well plate with 300 μL of the Reaction/Washing Buffer (1×) three times, 5-fold diluted each of the culture solution or mesenchymal stem cell growth medium alone in which no cell was cultured was added to each well, and the mixture was reacted at room temperature for 2 hours while shaking with a microplate shaker. After completion of the reaction, the reaction mixture was discarded, and after washing each well with 300 μL of the Reaction/Washing Buffer (1×) three times, 100 μL of Primary Antibody Anti-CD63 (×100) diluted 1,000-fold with the Reaction/Washing Buffer (1×) was added thereto, and the mixture was reacted at room temperature for 1 hour while shaking with a microplate shaker. After completion of the reaction, the reaction mixture was discarded, and after washing each well with 300 μL of the Reaction/Washing Buffer (1×) three times, 100 μL of the Secondary Antibody HRP-conjugated Anti-mouse IgG (100×) diluted 1,000-fold with the Reaction/Washing Buffer (1×) was added thereto, and the mixture was reacted at room temperature for 1 hour while shaking with a microplate shaker. After completion of the reaction, the reaction mixture was discarded, and after washing each well with 300 μL of the Reaction/Washing Buffer (1×) five times, 100 μL of TMB Solution was added, and after shaking for 1 minute with a microplate shaker, the mixture was reacted at room temperature for 30 minutes. After completion of the reaction, 100 μL of Stop Solution was added thereto, and after shaking with a microplate shaker for 5 seconds, the absorbance at 450 nm and 620 nm was measured with Enspire (manufactured by PerkinElmer), and the absorbance at 620 nm was subtracted from the absorbance at 450 nm for each well.

[2] = test system: human bone marrow-derived mesenchymal stem cells; assay: Test Example 7: promotion of secretion of extracellular vesicles, PS Capture exosome ELISA (anti-CD63); details: 24 hours, compound untreated group (control) set to 1
Procedure: (§1) Human bone marrow-derived mesenchymal stem cells or human umbilical cord matrix-derived mesenchymal stem cells (#C-12974, #C-12971 manufactured by Takara Bio Inc.) were suspended in mesenchymal stem cell growth medium 2 (C-28009 manufactured by Takara Bio Inc.) so as to be 8×10^4 cells/1.8 mL, and seeded on a 6-well cell culture treatment plate (3516 manufactured by Corning Inc.). To the seeded mesenchymal stem cells was added each 200 μL of the compounds of Examples 1 to 8 diluted to 10-fold concentration with the mesenchymal stem cell growth medium 2, and after culturing for 24 hours, the culture solution was recovered. Subsequently, the recovered culture solution was centrifuged under 20,000×g at 4° C. for 60 minutes to prepare a culture solution from which cell fragments and Large Extracellular Vesicles were removed. For the detection of extracellular vesicles, PS Capture (trademark) exosome ELISA kit (anti-mouse IgG POD) (#297-79201 manufactured by FUJIFILM Wako Pure Chemical Corporation) was used.
(§2) To Reaction/Washing Buffer (1×) prepared by diluting Reaction/Washing Buffer (10×) 10-fold with purified water was added 1/100 amount of Exosome Binding Enhancer (100×) to prepare a Reaction/Washing Buffer (1×). Each culture solution was diluted 5-fold with the Reaction/Washing Buffer (1×). After washing Exosome Capture 96-well plate with 300 μL of the Reaction/Washing Buffer (1×) three times, 5-fold-diluted each extracellular vesicle solution, or the mesenchymal stem cell growth medium 2 in which no cell was cultured (negative control) was added to each well, and the mixture was reacted at room temperature for 2 hours while shaking with a microplate shaker. After completion of the reaction, the reaction mixture was discarded, and after washing each well with 300 μL of the Reaction/Washing Buffer (1×) three times, 100 μL of Primary Antibody Anti-CD63 (×100) diluted to 1,000-fold with the Reaction/Washing Buffer (1×) was added thereto, and the mixture were reacted at room temperature for 1 hour while shaking with a microplate shaker. After completion of the reaction, the reaction mixture was discarded, and after washing each well with 300 μL of the Reaction/Washing Buffer (1×) three times, 100 μL of Secondary Antibody HRP-conjugated Anti-mouse IgG (100×) diluted to 1,000-fold with the Reaction/Washing Buffer (1×) was added thereto, and the mixture were reacted at room temperature for 1 hour while shaking with a microplate shaker. After completion of the reaction, the reaction mixture was discarded, and after washing each well with 300 μL of the Reaction/Washing Buffer (1×) five times, 100 μL of TMB Solution was added, and after shaking with a microplate shaker for 1 minutes, the mixture was reacted at room temperature for 30 minutes. After completion of the reaction, 100 μL of Stop Solution was added thereto, and after shaking with a microplate shaker for 5 seconds, the absorbance at 450 nm and 620 nm was measured with Enspire (manufactured by PerkinElmer). Based on the obtained measured values, a value subtracting the absorbance at 620 nm from the absorbance at 450 nm was calculated and a relative value when the compound untreated group (control) was set to 1 was calculated.

[3] = test system: human umbilical cord matrix-derived mesenchymal stem cells; assay: as above; details: 24 hours, compound untreated group (control) set to 1
Procedure: as §1, §2

| Structure (SMILES) | Difference in absorbance ([1]; Table 2, 2 μM) | Relative value of difference of absorbance ([2]; 2 μM) | Relative value of difference of absorbance ([3]; 2 μM) | Difference in absorbance ([1]; Table 1, 2 μM) | Difference in absorbance ([1]; Table 2, 50 nM) | Relative value of difference of absorbance ([2]; 20 nM) | Relative value of difference of absorbance ([3]; 20 nM) | Difference in absorbance ([1]; Table 1, 50 nM) |
| --- | --- | --- | --- | --- | --- | --- | --- | --- |
| Cc1cc2c(C(C)C)c(O)c(O)c(C=O)c2c(O)c1-c1c(C)cc2c(C(C)C)c(O)c(O)c(C=O)c2c1O [Example 4, (R)-(−)-Gossypol] | 1.51 | 2.39 | 1.95 | – | – | – | – | – |
| Cc1cc2c(C(=O)NC[C@H](C)c3ccccc3)c(O)c(O)cc2c(O)c1-c1c(C)cc2c(C(=O)NC[C@H](C)c3ccccc3)c(O)c(O)cc2c1O [Example 8, Sabutoclax] | 1.41 | 1.39 | 1.44 | – | – | – | – | – |
| CC(=O)O.Cc1cc2c(C(C)C)c(O)c(O)c(C=O)c2c(O)c1-c1c(C)cc2c(C(C)C)c(O)c(O)c(C=O)c2c1O (racemic) [Example 1, (±)-Gossypol Acetate] | 1.97 | 2.46 | 1.97 | 2.15 | – | – | – | – |
| Cc1cc2c(C(C)C)c(O)c(O)cc2c(O)c1-c1c(C)cc2c(C(C)C)c(O)c(O)cc2c1O [Example 3, (+)-Apogossypol] | 1.33 | 1.53 | 1.31 | – | – | – | – | – |
| CCCCCCCCCCCc1ccc(/C=C2\N=C(c3ccc[nH]3)C=C2OC)[nH]1.Cl [Example 7, Undecylprodigiosin Hydrochloride] | – | – | – | – | 1.88 | 2.88 | 1.74 | – |
| COC1=CC(c2cc3ccccc3[nH]2)=N/C1=C\c1[nH]c(C)cc1C.CS(=O)(=O)O [Example 5, Obatoclax Mesylate] | – | – | – | – | – | 1.81 | 1.65 | 2.27 |
| CC(=O)O.Cc1cc2c(C(C)C)c(O)c(O)c(C=O)c2c(O)c1-c1c(C)cc2c(C(C)C)c(O)c(O)c(C=O)c2c1O [Example 2, (S)-Gossypol Acetate] | 1.79 | 2.14 | 1.57 | – | – | – | – | – |
| CCCCCC1=C/C(=C\c2[nH]c(-c3ccc[nH]3)cc2OC)N=C1C.Cl [Example 6, Prodigiosin Hydrochloride] | – | – | – | – | 2.38 | 1.31 | 1.48 | – |
